From ChEMBL document CHEMBL1629662, “Antimicrobial activity of prulifloxacin tested against a worldwide collection of gastroenteritis-producing pathogens, including those causing traveler's diarrhea” (2009)

Columns and labels:
Vibrio parahaemolyticus = assay: Antibacterial activity against Vibrio parahaemolyticus by broth microdilution methods in presence of sulfamethoxazole
Vibrio alginolyticus = assay: Antibacterial activity against Vibrio alginolyticus by broth microdilution methods in presence of sulfamethoxazole
Vibrio fluvialis = assay: Antibacterial activity against Vibrio fluvialis by broth microdilution method in presence of sulfamethoxazole
Vibrio vulnificus = assay: Antibacterial activity against Vibrio vulnificus by broth microdilution method in presence of sulfamethoxazole
Vibrio sp. = assay: Antibacterial activity against Vibrio sp. by broth microdilution method in presence of sulfamethoxazole
Campylobacter jejuni = assay: Antibacterial activity against Campylobacter jejuni by broth microdilution method in presence of sulfamethoxazole
Campylobacter coli = assay: Antibacterial activity against Campylobacter coli by broth microdilution method in presence of sulfamethoxazole
Escherichia coli = assay: Antibacterial activity against Escherichia coli by broth microdilution methods in presence of sulfamethoxazolee
Salmonella typhimurium = assay: Antibacterial activity against Salmonella enterica serovar Typhimurium by broth microdilution method in presence of sulfamethoxazolee
Salmonella enteritidis = assay: Antibacterial activity against Salmonella enterica serovar Enteritidis by broth microdilution method in presence of sulfamethoxazolee
Salmonella typhi = assay: Antibacterial activity against Salmonella enterica serovar Typhi by broth microdilution method in presence of sulfamethoxazolee
Salmonella paratyphi = assay: Antibacterial activity against Salmonella enterica serovar Paratyphi by broth microdilution method in presence of sulfamethoxazolee
[1] = Antibacterial activity against Salmonella enterica serovar Newport by broth microdilution method in presence of sulfamethoxazole
[2] = Antibacterial activity against Salmonella enterica serovar Virchow by broth microdilution method in presence of sulfamethoxazole
[3] = Antibacterial activity against Salmonella enterica serovar Heidelberg by broth microdilution method in presence of sulfamethoxazole
Shigella sonnei = assay: Antibacterial activity against Shigella sonnei by broth microdilution method in presence of sulfamethoxazole
Shigella flexneri = assay: Antibacterial activity against Shigella flexneri by broth microdilution method in presence of sulfamethoxazole
Shigella boydii = assay: Antibacterial activity against Shigella boydii by broth microdilution methods in presence of sulfamethoxazole
Shigella dysenteriae = assay: Antibacterial activity against Shigella dysenteriae by broth microdilution methods in presence of sulfamethoxazole
Yersinia enterocolitica = assay: Antibacterial activity against Yersinia enterocolitica by broth microdilution methods in presence of sulfamethoxazole
[4] = system: Yersinia pseudotuberculosis; assay: Antibacterial activity against Yersinia pseudotuberculosis by broth microdilution methods in presence of sulfamethoxazole
Aeromonas hydrophila = assay: Antibacterial activity against Aeromonas hydrophila by broth microdilution methods in presence of sulfamethoxazole
Aeromonas caviae = assay: Antibacterial activity against Aeromonas caviae by broth microdilution methods in presence of sulfamethoxazole
Aeromonas sobria = assay: Antibacterial activity against Aeromonas sobria by broth microdilution methods in presence of sulfamethoxazole
Aeromonas veronii = assay: Antibacterial activity against Aeromonas veronii by broth microdilution methods in presence of sulfamethoxazole
Plesiomonas shigelloides = assay: Antibacterial activity against Plesiomonas shigelloides by broth microdilution method in presence of sulfamethoxazole
Vibrio cholerae = assay: microbe, parasite or virus in culture

COc1cc(Cc2cnc(N)nc2N)cc(OC)c1OC [TRIMETHOPRIM]
2 µg/mL: MIC50 (Campylobacter jejuni) | MIC50 (Campylobacter coli)
> 64 µg/mL: MIC90 (Escherichia coli) | MIC50 (Shigella sonnei) | MIC90 (Shigella sonnei) | MIC50 (Shigella flexneri) | MIC90 (Shigella flexneri) | MIC50 (Shigella boydii) | MIC90 (Shigella boydii) | MIC50 (Shigella dysenteriae) | MIC90 (Shigella dysenteriae)
8 µg/mL: MIC90 (Campylobacter jejuni) | MIC90 (Campylobacter coli) | MIC90 (Aeromonas hydrophila) | MIC90 (Aeromonas caviae) | MIC90 (Aeromonas sobria) | MIC90 (Aeromonas veronii)
≤ 0.5 µg/mL: MIC50 (Vibrio parahaemolyticus) | MIC90 (Vibrio parahaemolyticus) | MIC50 (Vibrio alginolyticus) | MIC90 (Vibrio alginolyticus) | MIC50 (Vibrio fluvialis) | MIC90 (Vibrio fluvialis) | MIC50 (Vibrio vulnificus) | MIC90 (Vibrio vulnificus) | MIC50 (Vibrio sp.) | MIC90 (Vibrio sp.) | MIC50 (Escherichia coli) | MIC50 (Salmonella typhimurium) | MIC90 (Salmonella typhimurium) | MIC50 (Salmonella enteritidis) | MIC90 (Salmonella enteritidis) | MIC50 (Salmonella typhi) | MIC90 (Salmonella typhi) | MIC50 (Salmonella paratyphi) | MIC90 (Salmonella paratyphi) | MIC50 [1] | MIC90 [1] | MIC50 [2] | MIC90 [2] | MIC50 [3] | MIC90 [3] | MIC50 (Yersinia enterocolitica) | MIC50 [4] | MIC50 (Aeromonas hydrophila) | MIC50 (Aeromonas caviae) | MIC50 (Aeromonas sobria) | MIC50 (Aeromonas veronii) | MIC (Plesiomonas shigelloides) | MIC50 (Plesiomonas shigelloides) | MIC50 (Vibrio cholerae) | MIC90 (Vibrio cholerae)
